# Measurements reported in patent US20260335278A1, “PHYTOCHEMICAL FORMULATIONS FOR TREATING STRESS AND ANXIETY” (GBS GLOBAL BIOPHARMA, INC., priority 2022, published 2026).
# “Also recorded” adds a separate entry of the source.
# How the values were obtained:
# zebrafish larvae [1] = assay: Thigmotaxis assay; type: in vivo; design: key: +: statistically significant increase; −−: statistically significant decrease
# Protocol: (§1) The validation process for the phytochemicals derived from Piper methysticum, other Piper plant family members, and non-Piper medicinal plants and fungi includes testing the selected phytochemical drug candidates as singles, doubles, and triples in two complementary zebrafish models of stress and anxiety. These two complementary assays are the Light/Dark Stress Response test that is illustrated in FIG. 5 (after the 90 min study of the effect of the compounds and mixtures on Baseline Activity) and the Thigmotaxis assay, as illustrated in FIG. 61A and FIG. 61B, which is also known as the wall flower effect, like the social anxiety of humans. Zebrafish larvae show a clear and distinct pattern of swimming in response to rapidly alternating light and dark conditions in the Light/Dark Response testing, which trigger a flight or fight response and darting behavior indicative of great stress and anxiety. The Light/Dark testing uses a control group to automatically track, using an automatic tracking device, the larval behavior in response to dark to light conditions. The thigmotaxis assay also uses automatic tracking and appropriate controls. In multiple embodiments additional Zebrafish larvae are given various concentrations of the selected phytochemicals from Table 1 for tracking Light/Dark Responses or Thigmotactic behavioral changes in the treated zebrafish larvae. Table 2A and Table 2B summarize the results from both assays when the individual phytochemicals are exposed to the: Baseline Activity (90 minutes in the light), Light/Dark Stress Response (5 min alternating pulses of dark and light for 30 min.), and Thigmotaxis Activity (% of time in the light center of the chamber (anxiety inducing) versus % of time near the dark (soothing) wall).
# (§2) The present invention includes a process to discover new pharmaceutical medicines for the treatment of stress, anxiety and anxiety-related disorders in a human. The preclinical testing included the effects of these 14 individual phytochemicals and 300 ratio-controlled mixtures of these phytochemicals in assays measuring the behavioral stress response patterns of zebrafish larvae. Larval behavior is assessed with at least one functional assay of stress or anxiety following acute exposure to each phytochemical sample formulated. Stereotypical basal activity patterns of zebrafish will be assessed to determine the potential side effects of the phytochemical samples in a concentration dependent manner for each compound on two zebrafish models of stress and anxiety: 1) the Light/Dark Stress Response (5 min alternating pulses of light and dark) in small to med well plates (96-48 well plates), and 2) Thigmotaxis assays in large well plates with 50% of the swimming surface colored dark around the margins of the well in large (24-12 well plates) will be assessed for their efficacy in testing the phytochemicals.
# (§3) The discovery methods of the present invention include testing the effects of up to 20 phytochemicals and 40 mixtures of the phytochemicals on behavioral stress response patterns of zebrafish larvae. Larval behavior was assessed with an automated video tracking system following acute exposure to each phytochemical sample. Stereotypical basal activity patterns of larvae were assessed to determine the concentration dependent effect of each compound. A zebrafish model of thigmotaxis in large well plates (24-12 well plates) was assessed for their efficacy in testing the phytochemicals. In the discovery method, fertilized eggs were kept on a re-circulating system in baskets until use at 120 hpf (5 days). At 120 hpf, larvae were loaded into 48 well plates in buffered fish media and acclimated to the plate in a heated light incubator for 2 hours. Larvae were acutely exposed with drug or controls at a 10× concentration and the plate was quickly transferred to a behavioral tracking system. Acute behavioral run was 90 minutes (baseline activity) in the light followed by alternating 5 minute bins (total 2 hours). […]
# MAO-A = conditions: cited from earlier work
# zebrafish larvae [2] = assay: Light/Dark Stress Response (5 min alternating pulses of dark and light for 30 min); type: in vivo; design: key to Light/Dark Stress Response: +: statistically significant increase; −−: statistically significant decrease
# Protocol: as §1, §2, §3
# zebrafish larvae [3] = assay: Zebrafish models of stress and anxiety, overall verdict (Light/Dark Stress Response and thigmotaxis); type: in vivo; conditions: for Anti-Anxiety Potential?: API used singly
# Protocol: as §1
# Additionally, testing is done with mixtures of these same selected phytochemicals from P. methysticum and other plants selected by our in silico analyses. The testing results are analyzed using artificial intelligence systems to rank effectiveness in reducing the Light/Dark response and thigmotactic behavior for the
# The A1 enabled drug discovery platform database search data was evaluated to select the best drug candidates from: A Piper methysticum, B. within the Piper plant family (>200 Piper spp.), or C. traditional medicines to begin testing […] (API) singles, doubles, and triples in two complementary zebrafish models of anxiety light/dark startle response testing and thigmotaxis assays.
# as §2
# The discovery methods of the present invention include testing the effects of up to 20 phytochemicals and 40 mixtures of the phytochemicals on behavioral stress response patterns of zebrafish larvae. Larval behavior was assessed with an automated video tracking system following acute exposure to each phytochemical sample. […]
# zebrafish larvae [4] = assay: Baseline activity / baseline exposure (90 min continuous light), zebrafish larvae; type: in vivo; design: key to Baseline Exposure: +: statistically significant increase; −−: statistically significant decrease
# Protocol: as §1, §2, §3
# MAO-B = conditions: cited from earlier work
molecule,measurement,setting,value
COC1=CC(=O)O[C@@H](CCc2ccc3c(c2)OCO3)C1 [(+)-dihydro methysticin],Thigmotaxis Model,zebrafish larvae [1]; High,−−
same,Thigmotaxis Model,zebrafish larvae [1]; Med,−−
same,"Approx. Dose (cell or animal experiments), MAO-A",MAO-A,"MAO-A 23.2 μM,"
same,Light/Dark Stress Response (5 min light/dark pulses),zebrafish larvae [2]; vehicle 0.5% MeOH,stress response is reduced
same,Light/Dark Stress Response (5 min light/dark pulses),zebrafish larvae [2]; vehicle 1% MeOH,"stress response is reduced, but evidence"
same,Anti-Anxiety Potential?,zebrafish larvae [3],Yes
same,Therapeutic Potential,zebrafish larvae [3]; vehicle 0.5% MeOH,Yes
same,Baseline Exposure,zebrafish larvae [4]; High,−−
same,Baseline Exposure,zebrafish larvae [4]; Low,+
same,Baseline Exposure,zebrafish larvae [4]; Med,−−
same,baseline Activity (90 min light),"zebrafish larvae [4]; vehicle 0.5% MeOH, listed as Dihydromysticin",baseline activity is close to controls; also recorded: (slight increase initially)
same,baseline Activity (90 min light),"zebrafish larvae [4]; vehicle 1% MeOH, listed as Dihydromysticin",baseline activity levels reduced; also recorded: (evidence of sedation)
same,"Approx. Dose (cell or animal experiments), MAO-B",MAO-B,MAO-B 0.855 μM
"COC1=CC(=O)O[C@@H](CCc2ccccc2)C1 [(S)-(+)-7,8-dihydrokavain]","Approx. Dose (cell or animal experiments), MAO-A",MAO-A,"MAO-A none,"
same,Light/Dark Stress Response (5 min light/dark pulses),zebrafish larvae [2]; vehicle 0.5% MeOH,no reduction in stress response
same,Light/Dark Stress Response (5 min light/dark pulses),zebrafish larvae [2]; vehicle 1% MeOH,"stress response trending down, but high"
same,Anti-Anxiety Potential?,zebrafish larvae [3],Yes
same,Therapeutic Potential,zebrafish larvae [3]; vehicle 0.5% MeOH,No
same,Therapeutic Potential,zebrafish larvae [3]; vehicle 1% MeOH,No
same,Baseline Exposure,zebrafish larvae [4]; High,−−
same,Baseline Exposure,zebrafish larvae [4]; Low,+
same,Baseline Exposure,zebrafish larvae [4]; Med,−−
same,baseline Activity (90 min light),zebrafish larvae [4]; vehicle 0.5% MeOH,baseline activity is close to controls; also recorded: (slight increase initially)
same,baseline Activity (90 min light),zebrafish larvae [4]; vehicle 1% MeOH,baseline activity levels reduced; also recorded: (evidence of sedation)
same,"Approx. Dose (cell or animal experiments), MAO-B",MAO-B,MAO-B 8.23 μM
"CCCCCCCCCCCCCCCC(=O)NCCO [N-palmitoyl ethanolamide (PEA), N-palmitoyl ethanolamide]",Light/Dark Stress Response,zebrafish larvae [2]; High,+
same,Light/Dark Stress Response,zebrafish larvae [2]; Med,+
same,Light/Dark Stress Response (5 min light/dark pulses),zebrafish larvae [2]; vehicle not given,stress response sometimes increased
same,Anti-Anxiety Potential?,zebrafish larvae [3],No
same,Therapeutic Potential,zebrafish larvae [3]; vehicle not given,No
same,Baseline Exposure,zebrafish larvae [4]; Med,+
same,baseline Activity (90 min light),zebrafish larvae [4]; vehicle not given,baseline activity not like controls; also recorded: (increased at all concentrations)
COC1=CC(=O)O[C@@H](/C=C/c2ccc3c(c2)OCO3)C1 [R-(+)-methysticin],"Approx. Dose (cell or animal experiments), MAO-A",MAO-A,"MAO-A 8.12 μM,"
same,Light/Dark Stress Response (5 min light/dark pulses),zebrafish larvae [2]; vehicle 0.5% MeOH,no reduction in stress response
same,Light/Dark Stress Response (5 min light/dark pulses),zebrafish larvae [2]; vehicle 1% MeOH,"stress response is reduced, but high"
same,Anti-Anxiety Potential?,zebrafish larvae [3],No
same,Therapeutic Potential,zebrafish larvae [3]; vehicle 0.5% MeOH,No
same,Therapeutic Potential,zebrafish larvae [3]; vehicle 1% MeOH,"No, sedative effect"
same,Baseline Exposure,zebrafish larvae [4]; High,−−
same,Baseline Exposure,zebrafish larvae [4]; Low,+
same,baseline Activity (90 min light),zebrafish larvae [4]; vehicle 0.5% MeOH,baseline activity levels reduced; also recorded: (evidence of sedation)
same,baseline Activity (90 min light),zebrafish larvae [4]; vehicle 1% MeOH,baseline activity levels reduced; also recorded: (evidence of sedation)
same,"Approx. Dose (cell or animal experiments), MAO-B",MAO-B,MAO-B 0.5 μM
"COc1c(O)cc(O)c2c(=O)cc(-c3ccccc3)oc12 [Wogonin (hydrate), wogonin]",Light/Dark Stress Response (5 min light/dark pulses),zebrafish larvae [2]; vehicle 1% MeOH,no reduction in stress response
same,Anti-Anxiety Potential?,zebrafish larvae [3],No
same,Therapeutic Potential,zebrafish larvae [3]; vehicle 1% MeOH,No
same,Baseline Exposure,zebrafish larvae [4]; High,+
same,Baseline Exposure,zebrafish larvae [4]; Med,+
same,baseline Activity (90 min light),zebrafish larvae [4]; vehicle 1% MeOH,baseline activity not like controls; also recorded: (increased at med/high
O=c1cc(-c2ccccc2)oc2cc(O)c(O)c(O)c12 [bacalein],Light/Dark Stress Response,zebrafish larvae [2]; High,−−
same,Light/Dark Stress Response,zebrafish larvae [2]; Med,−−
same,Light/Dark Stress Response (5 min light/dark pulses),zebrafish larvae [2]; vehicle 1% MeOH,"stress response is reduced, but sedation"
same,Anti-Anxiety Potential?,zebrafish larvae [3],Yes
same,Baseline Exposure,zebrafish larvae [4]; High,−−
same,Baseline Exposure,zebrafish larvae [4]; Med,+
same,baseline Activity (90 min light),zebrafish larvae [4]; vehicle 1% MeOH,"baseline activity not like controls; also recorded: (increased at low concentrations,; also recorded: sedating at higher concentrations)"
C=C1CC/C=C(\C)CC[C@@H]2[C@@H]1CC2(C)C [beta caryophyllene],Light/Dark Stress Response,zebrafish larvae [2]; High,−−
same,Light/Dark Stress Response,zebrafish larvae [2]; Low,+
same,Light/Dark Stress Response (5 min light/dark pulses),zebrafish larvae [2]; vehicle 1% MeOH,stress response reduced in highest
same,Anti-Anxiety Potential?,zebrafish larvae [3],No
same,Therapeutic Potential,zebrafish larvae [3]; vehicle 1% MeOH,No
same,Baseline Exposure,zebrafish larvae [4]; High,+
same,Baseline Exposure,zebrafish larvae [4]; Low,+
same,Baseline Exposure,zebrafish larvae [4]; Med,+
same,baseline Activity (90 min light),zebrafish larvae [4]; vehicle 1% MeOH,"baseline activity not like controls; also recorded: (increased at all concentrations); also recorded: conc., but baseline activity is concerning"
"C=C(C)[C@@H]1CCC(C)=C[C@H]1c1c(O)cc(CCCCC)cc1O [cannabidiol (CBD), cannabidiol, reference compound]",Thigmotaxis Model,zebrafish larvae [1]; High,−−
same,Light/Dark Stress Response,zebrafish larvae [2]; High,−−
same,Light/Dark Stress Response,zebrafish larvae [2]; Low,+
same,Light/Dark Stress Response,zebrafish larvae [2]; Med,−−
same,Light/Dark Stress Response (5 min light/dark pulses),zebrafish larvae [2]; vehicle 1% MeOH,stress response is reduced
same,Anti-Anxiety Potential?,zebrafish larvae [3],Yes
same,Baseline Exposure,zebrafish larvae [4]; High,−−
same,Baseline Exposure,zebrafish larvae [4]; Low,+
same,Baseline Exposure,zebrafish larvae [4]; Med,−−
same,baseline Activity (90 min light),zebrafish larvae [4]; vehicle 1% MeOH,"baseline activity not like controls; also recorded: (increased at low concentrations,; also recorded: sedating at higher concentrations)"
COc1cc(/C=C/C(=O)CC(=O)/C=C/c2ccc(O)c(OC)c2)ccc1O [curcumin],"Approx. Dose (cell or animal experiments), MAO-A",MAO-A,"MAOA 9.01 μM, MAOB"
same,Light/Dark Stress Response,zebrafish larvae [2]; High,−−
same,Light/Dark Stress Response (5 min light/dark pulses),zebrafish larvae [2]; vehicle 1% MeOH,stress response reduced in highest
same,Anti-Anxiety Potential?,zebrafish larvae [3],No
same,Therapeutic Potential,zebrafish larvae [3]; vehicle 1% MeOH,"No, sedative effect"
same,Baseline Exposure,zebrafish larvae [4]; High,+
same,Baseline Exposure,zebrafish larvae [4]; Med,+
same,baseline Activity (90 min light),zebrafish larvae [4]; vehicle 1% MeOH,"baseline activity not like controls; also recorded: (increased at med/high; also recorded: conc., but baseline activity is concerning"
same,"Approx. Dose (cell or animal experiments), MAO-B",MAO-B,2.55 µM
"C=CCc1ccc(OC)cc1 [methyl chavicol (4-allylanisole), 4-allylanisole]",Light/Dark Stress Response,zebrafish larvae [2]; High,+
same,Light/Dark Stress Response (5 min light/dark pulses),zebrafish larvae [2]; vehicle 1% MeOH,"no reduction in stress response, some"
same,Anti-Anxiety Potential?,zebrafish larvae [3],No
same,Therapeutic Potential,zebrafish larvae [3]; vehicle 1% MeOH,No
same,Baseline Exposure,zebrafish larvae [4]; High,−−
same,Baseline Exposure,zebrafish larvae [4]; Med,−−
same,baseline Activity (90 min light),zebrafish larvae [4]; vehicle 1% MeOH,baseline activity not like controls; also recorded: (decreased at high concentrations)
COc1cc(/C=C/C(=O)N2CCC=CC2=O)cc(OC)c1OC [piperlongumine],Thigmotaxis Model,zebrafish larvae [1]; High,−−
same,Thigmotaxis Model,zebrafish larvae [1]; Med,−−
same,Light/Dark Stress Response,zebrafish larvae [2]; High,−−
same,Light/Dark Stress Response,zebrafish larvae [2]; Low,+
same,Light/Dark Stress Response (5 min light/dark pulses),zebrafish larvae [2]; vehicle 1% MeOH,stress response is reduced
same,Anti-Anxiety Potential?,zebrafish larvae [3],Yes
same,Baseline Exposure,zebrafish larvae [4]; Med,+
same,baseline Activity (90 min light),zebrafish larvae [4]; vehicle 1% MeOH,"baseline activity not like controls; also recorded: (increased at low concentrations,; also recorded: sedating at higher concentrations)"
farnesene,Light/Dark Stress Response,zebrafish larvae [2]; High,−−
same,Light/Dark Stress Response (5 min light/dark pulses),zebrafish larvae [2]; vehicle 1% MeOH,no reduction in stress response
same,Anti-Anxiety Potential?,zebrafish larvae [3],Yes
same,Therapeutic Potential,zebrafish larvae [3]; vehicle 1% MeOH,No
same,Baseline Exposure,zebrafish larvae [4]; High,+
same,Baseline Exposure,zebrafish larvae [4]; Med,+
